From patent publication US20020019536A1, “NEW URETHANES, THIO AND DITHIO ANALOGUES AND THEIR USE AS INHIBITORS OF CHOLESTEROL BIOSYNTHESIS” (priority 1997, published 2002) come the findings set out here.

Structures are written as SMILES. Values after ≈ are worked out from the molar mass of the structure shown. A value given as a limit tells only on which side of the number the result lay.

Assay [1] relates to 14C-acetate incorporation into the steroids which can be precipitated with digitonin (cholesterol biosynthesis). Put plainly: Inhibition of 14C-acetate incorporation into the steroids which can be precipitated with digitonin. Type of assay: cell-based. An excerpt:
I. Measuring the Inhibition of ^14C-acetate incorporation into the steroids which can be precipitated with digitonin: The inhibitory effect was investigated using the method described in J. Lipid. Res. 37, 148-157 [1996] at test concentrations of 10^−8 and 10^−9 mol/l.

Assay [2] deals with T1, 2,3-epoxysqualene-lanosterol-cyclase (Rattus norvegicus, UniProt P48450).
T1 construct: Measuring the in-vivo Activity in the Rat after Oral Administration; from tissue; host or cells: living rat; 2,3-epoxysqualene measured in the liver
T1 sequence (P48450 1-733): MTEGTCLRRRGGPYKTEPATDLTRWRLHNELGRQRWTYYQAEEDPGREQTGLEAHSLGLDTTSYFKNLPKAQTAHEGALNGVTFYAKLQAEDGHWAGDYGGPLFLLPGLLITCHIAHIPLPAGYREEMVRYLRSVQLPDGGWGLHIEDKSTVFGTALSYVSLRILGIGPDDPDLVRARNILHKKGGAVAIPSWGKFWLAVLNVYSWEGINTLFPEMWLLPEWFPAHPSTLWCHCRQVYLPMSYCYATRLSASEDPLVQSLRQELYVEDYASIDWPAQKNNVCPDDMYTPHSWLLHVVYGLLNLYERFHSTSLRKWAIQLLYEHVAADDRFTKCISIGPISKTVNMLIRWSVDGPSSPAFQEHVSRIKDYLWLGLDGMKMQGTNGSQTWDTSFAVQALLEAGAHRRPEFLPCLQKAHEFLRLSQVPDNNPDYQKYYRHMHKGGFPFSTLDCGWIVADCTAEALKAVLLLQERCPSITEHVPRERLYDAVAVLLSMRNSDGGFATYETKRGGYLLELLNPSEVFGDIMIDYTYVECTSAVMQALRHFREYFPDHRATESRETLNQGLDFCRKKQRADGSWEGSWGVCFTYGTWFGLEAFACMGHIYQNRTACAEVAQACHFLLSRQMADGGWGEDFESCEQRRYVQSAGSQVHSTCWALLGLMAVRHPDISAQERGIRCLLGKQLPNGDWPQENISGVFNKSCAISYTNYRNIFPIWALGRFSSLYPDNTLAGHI
Put plainly: In-vivo activity in the rat after oral administration: 2,3-epoxysqualene level in the liver. How it is done:
II. Measuring the in-vivo Activity in the Rat after Oral Administration
Inhibiting the enzyme 2,3-epoxysqualene-lanosterol-cyclase causes an increase in the 2,3-epoxisqualene levels in the liver and plasma. The quantity of 2,3-epoxysqualene formed therefore serves as a direct measurement of the potency on the animal as a whole. The amounts were determined using the method described in J. Lipid. Res. 38, 564-575, [1997] at t=3 or 8 hours after administration of the substance in concentrations of c=0.01, 0.03, 0.1, 0.3 and 1.0 mg/kg. Table 3 which follows gives the results obtained for the abovementioned substances A, B, C, E, G, H, O and R by way of example.
In the control animals there were no measurable 2,3-epoxisqualene levels under these conditions.

Assay [3] relates to Cand. albicans ATCC 10231. The experiment in a line: Fungistatic activity, series dilution test. The note with it: Sabouraud broth, 2 to 4 days at 26° C. Type of assay: cell-based. How it is done: (§1) V. Determining the Fungistatic Activity
(§2) The fungistatic activity was determined by the series dilution test (microtitre system). Sabouraud broth was used as the nutrient medium. The inoculum amounted to about 10^4 to 10^5 CFU/ml (CFU=colony-forming units); the incubation period was 2 to 4 days at 26° C.
(§3) The lowest concentration which allows no visible growth (minimum inhibitory concentration MIC) was determined.
(§4) The abovementioned compounds B, E, G, I, K, L, N, Q and R were tested. The MIC is given in μg/ml.

Assay [4] deals with Sacch. carisbergensis ATCC 9080. The experiment in a line: Fungistatic activity, series dilution test. Conditions: Sabouraud broth, 2 to 4 days at 26° C. The class given is cell-based. The method, then:
as §1, §2, §3, §4

In assay [5] the test system is Asp. niger ATCC 16404. Put plainly: Fungistatic activity, series dilution test. The note with it: Sabouraud broth, 2 to 4 days at 26° C. Type of assay: cell-based. How it is done:
as §1, §2, §3, §4

For assay [6], the system named is Pen. notatum CBS 19746. The experiment in a line: Fungistatic activity, series dilution test. The class given is cell-based. Conditions: Sabouraud broth, 2 to 4 days at 26° C. The method, then:
as §1, §2, §3, §4

The test system of assay [7] is Trich. mentagrophytes ATCC 9129. Put plainly: Fungistatic activity, series dilution test. The class given is cell-based. The note with it: Sabouraud broth, 2 to 4 days at 26° C. The method, then:
as §1, §2, §3, §4

Assay [8] deals with Rhod. rubra 49. The experiment in a line: Fungistatic activity, series dilution test. Type of assay: cell-based. Conditions: Sabouraud broth, 2 to 4 days at 26° C. The method, then: as §1, §2, §3, §4
The nature of assay [9]: Lipid reduction in the normolipaemic golden hamster. Type of assay: in vivo. Conditions: compared with control group. How it is done: III. Lipid Reduction in the Normolipaemic Golden Hamster This was determined using the method described in J. Lipid. Res. 38, 564-575, (1997). At the end of the experiment the total cholesterol, β-lipoprotein-cholesterol and HDL-cholesterol were determined and compared with the values of a control group which were fed without any test substance. The lipid-lowering activity of the abovementioned compounds E, G and I was tested.

[10] abbreviates: 0.03 mg/kg oral, 3 h after administration.
The mark [11] stands for this setting: 0.03 mg/kg oral, 8 h after administration.
[12] abbreviates: 0.1 mg/kg oral, 3 h after administration.
Where [13] appears, read: 0.1 mg/kg oral, 8 h after administration.
Where [14] appears, read: 0.3 mg/kg oral, 3 h after administration.
The mark [15] stands for this setting: 0.3 mg/kg oral, 8 h after administration.

Turning to `CN(C)Cc1ccc([C@H]2CC[C@H](N(C)C(=S)SCc3cccc(F)c3)CC2)cc1.Cl` [B, trans-S-(3-fluorobenzyl)-N-4-[4-(dimethylaminomethyl)-phenyl]cyclohexyl-N-methyldithiocarbamate-hydrochloride], the “percentage inhibition of 14C-acetate incorporation” value (“percentage inhibition” below) in assay [1] (test concentration 10^−8 mol/l) is −85%; in assay [1] (test concentration 10^−9 mol/l), −59%. Further, the “2,3-epoxysqualene concentration in the liver (rat)” value (“2,3-epoxysqualene concentration” for short) in [2] (setting [10]) came to 24.5 µg/g; in assay [2] (setting [11]), 57.1 µg/g; in assay [2] (setting [12]), 96.0 µg/g; in [2] (setting [13]), 150.9 µg/g; in [2] (setting [14]), 98.5 µg/g; in assay [2] (setting [15]), 234.5 µg/g. Moreover, in assay [3], the “MIC Cand.” value is 2 µg/mL. The “MIC Sacc.” value in assay [4] stood at 8 µg/mL. Further, the “MIC Asp.” value in assay [5] came out at 2 µg/mL. The “MIC Pen.” value in assay [6] is 2 µg/mL. For the same compound, the “MIC Trich.” value in assay [7] was found to be 1 µg/mL. In assay [8], the “MIC Rhod.” value is 2 µg/mL.
Compound `CN(C)Cc1ccc([C@H]2CC[C@H](N(C)C(=S)Oc3ccc(Cl)cc3)CC2)cc1.Cl` [G, trans-O-(4-chlorophenyl)-N-4-[4-(dimethylaminomethyl)-phenyl]cyclohexyl-N-methylthiocarbamate-hydrochloride] showed an IC50 in [1] (14C-acetate incorporation) of 0.4 nM. Also, the entries for the “percentage inhibition” value in assay [1] (test concentration 10^−8 mol/l) and in [1] (test concentration 10^−9 mol/l) were −85% and −43%, respectively. Also, the “2,3-epoxysqualene concentration” value was found to be 5.2 µg/g in assay [2] (0.01 mg/kg oral, 3 h after administration); 30.1 µg/g in assay [2] (0.01 mg/kg oral, 8 h after administration); 12.8 µg/g in assay [2] (setting [10]); 42.3 µg/g in assay [2] (setting [11]); 66.2 µg/g in assay [2] (setting [12]); 115.3 µg/g in assay [2] (setting [13]). For the same compound, the “2,3-epoxysqualene concentration” value turned out to be 57.5 µg/g in assay [2] (setting [14]) and 225.5 µg/g in assay [2] (setting [15]). Further, the HDL-cholesterol in [9] (dose 0.5 mg/kg/day) was −21.1%; in assay [9] (dose 1.5 mg/kg/day) it was −26.5%; in assay [9] (dose 4.9 mg/kg/day), −24.3%. Also, the Total cholesterol is reported as −27.7% in assay [9] (dose 0.5 mg/kg/day), −31.1% in assay [9] (dose 1.5 mg/kg/day) and −26.5% in [9] (dose 4.9 mg/kg/day). The β-Lipoprotein-cholesterol in assay [9] (dose 0.5 mg/kg/day) is recorded as −40.2%; in [9] (dose 1.5 mg/kg/day), −42.2%; in [9] (dose 4.9 mg/kg/day), −33.2%. The “MIC Cand.” value in assay [3] worked out at 4 µg/mL. Besides, the “MIC Sacc.” value in assay [4] was determined as 32 µg/mL. Also, the “MIC Asp.” value in [5] was 4 µg/mL. For the same compound, the “MIC Pen.” value in assay [6] was 1 µg/mL. The “MIC Trich.” value in assay [7] came out at 1 µg/mL. Besides, the “MIC Rhod.” value in [8] came to 8 µg/mL.
Regarding `CN(C(=O)Oc1ccc(Cl)cc1)[C@H]1CC[C@H](c2ccc(CN3CCCCC3)cc2)CC1.Cl` [I, trans-O-(4-chlorophenyl)-N-methyl-N-4-[4-(piperidinomethyl)phenyl]cyclohexylcarbamate-hydrochloride], the “percentage inhibition” value in [1] (test concentration 10^−8 mol/l) is on record as −83%; in assay [1] (test concentration 10^−9 mol/l) it was −43%. For the same compound, the HDL-cholesterol in assay [9] (dose 0.46 mg/kg/day) is on record as −3.3%; in assay [9] (dose 1.34 mg/kg/day) it was −5.0%; in [9] (dose 4.89 mg/kg/day) it was −16.2%. For the same compound, the Total cholesterol was −16.1% in assay [9] (dose 0.46 mg/kg/day), −20.2% in [9] (dose 1.34 mg/kg/day) and −25.7% in assay [9] (dose 4.89 mg/kg/day). Besides, the β-Lipoprotein-cholesterol in assay [9] (dose 0.46 mg/kg/day) is −26.2%; in [9] (dose 1.34 mg/kg/day) it was −33.7%; in assay [9] (dose 4.89 mg/kg/day), −36.1%. For the same compound, the “MIC Cand.” value in assay [3] was 64 µg/mL. For the same compound, the “MIC Sacc.” value in assay [4] stood at 64 µg/mL. Moreover, the “MIC Asp.” value in [5] worked out at 256 µg/mL. Also, the “MIC Pen.” value in [6] was determined as 64 µg/mL. Also, the “MIC Trich.” value in assay [7] was 8 µg/mL. Besides, the “MIC Rhod.” value in [8] was found to be 64 µg/mL.
In the case of `CCN(CC)Cc1ccc([C@H]2CC[C@H](N(C)C(=O)Oc3ccc(Cl)cc3)CC2)cc1.Cl` [L, trans-O-(4-chlorophenyl)-N-4-[4-(diethylaminomethyl)-phenyl]cyclohexyl-N-methylcarbamate-hydrochloride], the “percentage inhibition” value in [1] (test concentration 10^−8 mol/l) was −83%; in assay [1] (test concentration 10^−9 mol/l), −53%. Besides, the “MIC Cand.” value in [3] is 32 µg/mL. The “MIC Sacc.” value in [4] worked out at 128 µg/mL. Further, the “MIC Asp.” value in assay [5] amounted to 32 µg/mL. Further, the “MIC Pen.” value in assay [6] was 64 µg/mL. In addition, the “MIC Trich.” value in [7] is 1 µg/mL. Also, the “MIC Rhod.” value in [8] is 8 µg/mL.
As to `C#CCN(C)Cc1ccc([C@H]2CC[C@H](N(C)C(=O)Oc3ccc(Cl)cc3)CC2)cc1` [N, trans-O-(4-chlorophenyl)-N-methyl-N-4-[4-(N-methyl-N-propargylaminomethyl)phenyl]cyclohexylcarbamate], the “percentage inhibition” value is on record as −90% in assay [1] (test concentration 10^−8 mol/l) and −75% in [1] (test concentration 10^−9 mol/l). Besides, the “MIC Cand.” value in [3] turned out to be 8 µg/mL (≈ 18.8 µM). Also, the “MIC Sacc.” value in [4] was found to be 64 µg/mL (≈ 151 µM). Moreover, the “MIC Asp.” value in assay [5] was greater than 512 µg/mL. In addition, in [6], the “MIC Pen.” value amounted to 8 µg/mL (≈ 18.8 µM). For the same compound, in assay [7], the “MIC Trich.” value came out at 8 µg/mL (≈ 18.8 µM). Besides, in assay [8], the “MIC Rhod.” value came to 16 µg/mL (≈ 37.6 µM).
As to `Cc1ccc(OC(=S)N(C)[C@H]2CC[C@H](c3ccc(CN4CCCCC4)cc3)CC2)cc1.Cl` [Q, trans-N-Methyl-O-(4-methylphenyl)-N-4-[4-(piperidinomethyl)phenyl]cyclohexylthiocarbamate-hydrochloride], the entries for the “percentage inhibition” value in assay [1] (test concentration 10^−8 mol/l) and in assay [1] (test concentration 10^−9 mol/l) were −79% and −51%, respectively. Moreover, in assay [3], the “MIC Cand.” value came out at 16 µg/mL. For the same compound, the “MIC Sacc.” value in assay [4] amounted to 32 µg/mL. Further, in assay [5], the “MIC Asp.” value was found to be 128 µg/mL. Besides, in assay [6], the “MIC Pen.” value was found to be 64 µg/mL. Besides, the “MIC Trich.” value in assay [7] was found to be 2 µg/mL. Moreover, the “MIC Rhod.” value in assay [8] was 8 µg/mL.
